Results on ten molecules are retold here after ChEMBL document CHEMBL1201862, “PubChem BioAssay data set” (2004).

Among the test systems are ACHN; CCRF-CEM; DLD-1; HCT-15; HT-29; IGROV-1; M14; M19-MEL; MOLT-4; NCI-H226; NCI-H522; OVCAR-3; SF-268; SK-MEL-28; SK-OV-3; SNB-19; HCT-116; SR; HCC 2998; OVCAR-4.
What all share (test): NCI tumour cell line growth inhibition, 48 h

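Step 1: Grow cells in 96-well plates. Step 2: Expose to compound for 48 hours at 5 concentrations. Step 3: Interpolate endpoints linearly; if unreached, use highest concentration. At the GI50, growth is halved.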 Activity calls are given as the source filed them. Cut-off read from the data, not from the text of the source: active = GI50 up to about 1.1 µM and inactive = higher.

On to `CCOCc1cc(=O)c2c(O)cc3c(c2o1)CCC(C)(C)O3`, for which the GI50 in the experiment on ACHN was > 100 µM (inactive); in the experiment with CCRF-CEM it was > 100 µM (inactive); in the experiment on DLD-1 it was > 100 µM (inactive); in the experiment with HCT-15 it was above 100 µM; with HT-29 it was > 100 µM (inactive); with IGROV-1, > 100 µM (inactive). The GI50 in the experiment on M14, with M19-MEL, in the experiment with MOLT-4, in the experiment on NCI-H226, with NCI-H522 and in the experiment with OVCAR-3 was > 100 µM (inactive) throughout. In addition, the GI50 in the experiment with SF-268, in the experiment with SK-MEL-28, in the experiment with SK-OV-3 and with SNB-19 was > 100 µM (inactive) throughout.

Regarding `O=[S@@]1Nc2ccc(Br)cc2S1`, the GI50 in the experiment on ACHN was 1.07 µM (active); in the experiment on CCRF-CEM, 1.64 µM (inactive); in the experiment with DLD-1, 6.08 µM (inactive); in the experiment with HCT-116, 4.66 µM (inactive); with HT-29 it was 2.13 µM (inactive); in the experiment on IGROV-1, 53 µM (inactive). For the same molecule, the GI50 in the experiment on M14 was 1.4 µM (inactive); in the experiment with M19-MEL, 3.98 µM (inactive); in the experiment with MOLT-4, 6.47 µM (inactive); with NCI-H226 it was > 100 µM (inactive); with NCI-H522, 0.887 µM (active); in the experiment with OVCAR-3, 31.2 µM (inactive). Also, the GI50 is 2.44 µM (inactive) in the experiment on SF-268; 4.53 µM (inactive) with SK-MEL-28; 22.5 µM (inactive) in the experiment on SK-OV-3; 2.77 µM (inactive) in the experiment with SNB-19; 7.14 µM (inactive) with SR.

Consider `Cc1cc(C)c(C2=NO[C@@H]3[C@H]2C(=O)C=C2N(Cc4ccccc4)CCO[C@@]23O)c(C)c1`, for which the GI50 with CCRF-CEM was > 100 µM (inactive); with DLD-1, > 100 µM (inactive); in the experiment on HCC 2998, > 100 µM (inactive); in the experiment with HCT-116, > 100 µM (inactive); with HCT-15 it was above 100 µM; in the experiment with HT-29 it was > 100 µM (inactive). In addition, the GI50 with IGROV-1, in the experiment with M19-MEL, in the experiment on MOLT-4, in the experiment on NCI-H226, in the experiment on NCI-H522 and in the experiment with OVCAR-3 was > 100 µM (inactive) each time. Further, the GI50 in the experiment on OVCAR-4, in the experiment on SF-268, in the experiment on SK-MEL-28, in the experiment on SK-OV-3 and in the experiment with SNB-19 was > 100 µM (inactive) throughout.

For the molecule `CCOC(=O)c1nc2ccc(OC)cc2c2c1Cc1ccccc1-2`, the GI50 with ACHN was > 100 µM (inactive); in the experiment on DLD-1 it was > 100 µM (inactive); in the experiment with HCC 2998, 87.1 µM (inactive); with HCT-116, 8.95 µM (inactive); in the experiment with HCT-15, above 100 µM; with HT-29, > 100 µM (inactive). Moreover, the GI50 was > 100 µM (inactive) with IGROV-1; > 100 µM (inactive) with M14; > 100 µM (inactive) in the experiment with M19-MEL; > 100 µM (inactive) with MOLT-4; > 100 µM (inactive) in the experiment on NCI-H226; 56.5 µM (inactive) in the experiment on NCI-H522. Also, the GI50 was > 100 µM (inactive) with OVCAR-3; 49.8 µM (inactive) in the experiment with OVCAR-4; > 100 µM (inactive) in the experiment with SF-268; > 100 µM (inactive) in the experiment with SK-MEL-28; > 100 µM (inactive) with SNB-19; > 100 µM (inactive) in the experiment on SR.

As to `CC1CC=CC(O)C1` (stereo unspecified), the GI50 with CCRF-CEM is > 100 µM (inactive); in the experiment on DLD-1, > 100 µM (inactive); in the experiment with HCC 2998, > 100 µM (inactive); in the experiment on HCT-116 it was > 100 µM (inactive); in the experiment on HCT-15 it was above 100 µM; with HT-29, > 100 µM (inactive). For the same molecule, the GI50 with IGROV-1, in the experiment on M19-MEL, in the experiment on MOLT-4, with NCI-H226, in the experiment with NCI-H522 and in the experiment with OVCAR-3 was > 100 µM (inactive) throughout. Moreover, the GI50 in the experiment on OVCAR-4, with SF-268, with SK-MEL-28, with SK-OV-3 and with SNB-19 was > 100 µM (inactive) each time.

For `CN(C)CCNC(=O)c1ccc(Cl)c2ccc(-c3ccccc3)nc12`, the GI50 with CCRF-CEM was 2.16 µM (inactive); in the experiment with DLD-1 it was 2.92 µM (inactive); with HCC 2998 it was 4.67 µM (inactive); in the experiment with HCT-116, 1.88 µM (inactive); with HCT-15, 3.42 µM; with HT-29, 2.77 µM (inactive). For the same molecule, the GI50 was 3.48 µM (inactive) in the experiment with IGROV-1; 3.69 µM (inactive) in the experiment with M19-MEL; 1.82 µM (inactive) in the experiment with MOLT-4; 2.32 µM (inactive) in the experiment on NCI-H226; 3.89 µM (inactive) in the experiment on NCI-H522; 5.4 µM (inactive) in the experiment on OVCAR-3. In addition, the GI50 with OVCAR-4 is 3.54 µM (inactive); in the experiment on SF-268 it was 4.45 µM (inactive); in the experiment with SK-MEL-28, 4.27 µM (inactive); in the experiment on SK-OV-3, 4.7 µM (inactive); in the experiment with SNB-19 it was 3.06 µM (inactive).

`CC(C)C(=O)N1C(=O)O[C@@H](c2ccccc2)[C@H]1C`: the GI50 in the experiment with ACHN was > 100 µM (inactive); in the experiment with CCRF-CEM, > 100 µM (inactive); with DLD-1, > 100 µM (inactive); in the experiment on HCC 2998, > 100 µM (inactive); in the experiment with HCT-116, > 100 µM (inactive); in the experiment on HCT-15 it was above 100 µM. Also, the GI50 in the experiment on HT-29, with IGROV-1, with M14, with M19-MEL, in the experiment on MOLT-4 and in the experiment on NCI-H226 was > 100 µM (inactive) throughout. In addition, the GI50 in the experiment with NCI-H522, in the experiment with OVCAR-3, in the experiment with OVCAR-4, in the experiment with SF-268, with SK-MEL-28 and in the experiment on SK-OV-3 was > 100 µM (inactive) in each case. The GI50 is > 23.6 µM (inactive) in the experiment on SNB-19 and > 100 µM (inactive) in the experiment on SR.

On to `O=S(O)c1cc(Cl)cc(Cl)c1OCc1ccccc1`, for which the GI50 in the experiment on ACHN, in the experiment on CCRF-CEM, with DLD-1, in the experiment with HCC 2998, with HCT-116 and in the experiment with HT-29 was > 100 µM (inactive) in each case. Also, the GI50 in the experiment on M14, with M19-MEL, in the experiment with MOLT-4, with NCI-H522, with OVCAR-3 and in the experiment on OVCAR-4 was > 100 µM (inactive) throughout. Moreover, the GI50 in the experiment with SF-268, in the experiment on SK-MEL-28, in the experiment on SK-OV-3, with SNB-19 and with SR was > 100 µM (inactive) each time.

Take `COc1cc(C2c3cc4c(cc3[C@@H](Nc3cccc([N+](=O)[O-])c3)C3COC(=O)[C@H]23)OCO4)cc(OC)c1O` (stereo partly specified): the GI50 in the experiment on CCRF-CEM was 0.4 µM (active); in the experiment on DLD-1, 1.93 µM (inactive); with HCC 2998, 2.33 µM (inactive); in the experiment on HCT-116, 1.99 µM (inactive); with HCT-15, 1.39 µM; in the experiment on HT-29 it was 2.6 µM (inactive). The GI50 in the experiment on IGROV-1 is 6.65 µM (inactive); in the experiment with M19-MEL, 4.01 µM (inactive); in the experiment with MOLT-4, 0.29 µM (active); in the experiment with NCI-H226, 1.85 µM (inactive); in the experiment on NCI-H522, 2.83 µM (inactive); in the experiment with OVCAR-3, 5.69 µM (inactive). The GI50 in the experiment on OVCAR-4 was 20.2 µM (inactive); with SF-268 it was 2.91 µM (inactive); in the experiment with SK-MEL-28, 5.36 µM (inactive); with SK-OV-3, 2.51 µM (inactive); in the experiment with SNB-19, 2.5 µM (inactive).

For the molecule `OCC1C2C=CC(O2)[C@H]1CO` (stereo partly specified), the GI50 in the experiment on ACHN was > 100 µM (inactive); with CCRF-CEM, 78.7 µM (inactive); with DLD-1, > 100 µM (inactive); in the experiment on HCC 2998, > 100 µM (inactive); in the experiment with HCT-116 it was > 100 µM (inactive); in the experiment on HCT-15 it was above 100 µM. Besides, the GI50 in the experiment on HT-29 was 79.6 µM (inactive); with IGROV-1 it was > 100 µM (inactive); in the experiment with M14 it was > 100 µM (inactive); with M19-MEL it was > 100 µM (inactive); in the experiment with MOLT-4, > 100 µM (inactive); in the experiment on NCI-H226 it was > 100 µM (inactive). Besides, the GI50 with NCI-H522, with OVCAR-3, in the experiment with OVCAR-4, with SF-268, with SK-MEL-28 and in the experiment with SK-OV-3 was > 100 µM (inactive) throughout. Also, the GI50 in the experiment on SNB-19 and in the experiment on SR was > 100 µM (inactive) each time.
